How the values were obtained:
[1] = Toxicity in P. cynomolgi-infected Rhesus monkeys; conditions: 12 mg/kg/day for 7 consecutive days
[2] = Toxicity study in Aotus monkey; assay type: in vivo; conditions: for CBC parameters / body weight change / adverse effects (anorexia, vomiting, diarrhea, behavior): single oral 3 mg/kg; for adverse effects (anorexia, vomiting, diarrhea, behavior): 28 day observation period; for behavior, weight or blood chemistry changes: single oral dose 3 mg/kg
Description: (e). Toxicity Study in Aotus monkey: Protocol: Two malaria double cured Aotus weighing 1027-695 grams respectively received single dose of 3 mg/kg orally of the two compounds 2b and 3e. The monkeys were weighed and pre-bleed for CBC and Chemistry (ALT, BUN, Creatinine) determination, and again three, seven and 15 days post treatment. Signs of toxicity such as anorexia, vomiting, diarrhea or behavior changes were recorded. […] (f). Antimalarial Activity against P. falciparum in Aotus monkey: Protocol: Six (6) malaria naive Aotus lemurinus lemurinus (weigh 787-978 grms) were divided into two groups of two Aotus each plus two controls (MN13177 male and MN 13153 male) and infected with 5×10^6 P. falciparum FVO malaria parasites with 1 ml of an appropriate dilution in RPMI media intravenously on the saphenous vein. When their parasitemia reached 5×10^4 parasites/ul, treatment was started. Giemsa-stained thick blood smears were prepared daily with a prick in the ear marginal vein and parasites enumerated by the Earle and Perez method. Group 1 Aotus received 3e at 1 mg/kg once a day×three days. Group 2 Aotus received 2b at 1 mg/kg once a day×three days. The monkeys were weight and pre-bled for CBC and Chemistry (ALT, BUN, Creatinine) determination, and on day 4 post-treatmetne (PT). Bleedings for Pk determinations were carried out on day 1 PT at time 0, 1 hr, 7:30 hr and 24 hr PT. Group 1 (receiving 3e) animals cleared the parasitemias on day 3 post treatment (PT) and remained negative up to 100 days PT. In group 2 (receiving 2b), one animal cleared on day 3 PT and the other one on day 4 PT remaining negative up to 100 days PT. […] (g). Antimalarial Activity against P. vivax in Aotus monkey: Protocol: Fourteen (14) P. falciparum cured Aotus l. lemurinus monkeys (male and female) (weight 700-925 grms) were infected intravenously with 5×10^6 parasites of the P. vivax AMRU-1 strain diluted in RPMI media obtained from a donor and divided into two larger groups of 6 monkeys each (Group I and Group II) (2 monkeys per dose level), that received 3e and 6 monkeys (2 monkeys per dose level) that received 2b daily at 0.5, 1.0 and 3 mg/kg/day for a total of 3 days. Two monkeys were left has untreated controls. Treatment started when parasitemia reached 5,000 parasites×cc/mm on day 6 PI. Daily food intake was documented. Daily Giemsa-stained thick blood smears were prepared from a prick in the marginal ear vein and parasites enumerated by the Earle and Perez method. The animals were weighed at weekly intervals. Blood samples for Pk determination were collected at the following time points as follows: Day 0: CBC and chemistry panel (ALT. Creatinine and BUN); Day 4: CBC and chemistry Panel. CBC and chemistry panels were done the day prior to first dose and 24 hours after last dose and at weekly intervals thereafter. […] The other monkeys received 1 and 3 mg/kg of 3e remained negative until day 100 PT. In Group II, all monkeys except for one that received 3 mg/kg of 2b failed treatment and were retreated on day 3 PT with 3e at either 0.25, 0.5 or 1 mg/kg for three days. In the monkeys that received re-treatment at 0.25 mg/kg, one cleared on day 4 PT but needed to be treated with Mefloquine on day 8 PT due to a low platelet count. The other animals that had not been cleared by day 6 PT were treated with Mefloquine. […] P. vivax is known to be very drug resistant to antifolates. (h). Presumptive Causal Prophylactic Test against P. cynomolgi in Rhesus monkey: Protocol: […]

| SMILES | signs of toxicity [1] | CBC parameters [2] | body weight change [2] | adverse effects (anorexia, vomiting, diarrhea, behavior) [2] | behavior, weight or blood chemistry changes [2] |
| --- | --- | --- | --- | --- | --- |
| CCOC(=O)Nc1nc(NC(=O)OCC)c2c(ccc3c2ccn3Cc2ccccc2C(F)(F)F)n1 [Compound 2b] | neither 2b nor 3e exhibited any sign of toxicity | remained within normal ranges | No significant changes in body weight | No adverse effects | no behavior, weight or blood chemistry changes |
| CC(=O)N(C(C)=O)c1nc(N(C(C)=O)C(C)=O)c2c(ccc3c2ccn3Cc2ccccc2C(F)(F)F)n1 [Compound 3e, 1,3-Bis(diacetylamino)-7-(2-trifluoromethyl)benzyl-7H-pyrrolo[3,2-f]quinazoline] | neither 2b nor 3e exhibited any sign of toxicity | remained within normal ranges | No significant changes in body weight | No adverse effects | no behavior, weight or blood chemistry changes |

Source: patent US7253177B2, “Synthesis and antimalarial activity of pyrrolo[3,2-f]quinazoline-1,3-diamine derivatives” (United States of America as Represented by the Secretary of …, priority 2004, dated 2007)
